Reference: US20240245780A1, “PHARMACEUTICAL COMPOSITIONS CONTAINING STABLE AMORPHOUS SOLID SOLUTIONS AND DISPERSIONS” (Eastman Chemical Company, priority 2021, published 2024)
Like-named read-outs stand apart in the source and are kept apart here.

How the values were obtained:
[1] = cited from earlier work
[2] = Solubility study of PSD in heated SAIB, HPLC; format: physicochemical
Procedure: Analysis of drugs was performed by HPLC. […] Solubility was determined in three replicates for each drug.
SAIB was heated to 150° C. (RFX, DST, DLT, CYS, ITZ, SRL, APT and CBZ) or 130° C. (TAC and APZ), followed by addition of a known amount of the drug to dissolve in 30 min. Approximately, 100 mg of each sample were transferred to a 100-mL volumetric flask, and volume was made up with the mobile phase to dissolve the drug. The amount of dissolved drug was determined by validated HPLC.

[3] = JECFA 1996, including pediatric populations; cited from earlier work
[4] = SAIB temperature 150° C., 30 min, three replicates

Compound | pKa [1] | Increase in Solubility Relative to Water [2] [x] | Solubility in SAIB [2, 4] | other results
C[C@@H](O[C@H]1OCCN(Cc2n[nH]c(=O)[nH]2)[C@H]1c1ccc(F)cc1)c1cc(C(F)(F)F)cc(C(F)(F)F)c1 [Aprepitant] | 10 | 55.7 |  | 
sucrose acetate isobutyrate [SAIB] |  |  |  | log P of SAIB [1]: 6; permanent acceptable daily intake [3]: up to 20 mg/kg body weight
C[C@@H]1CCO[C@H]2Cn3cc(C(=O)NCc4ccc(F)cc4F)c(=O)c(O)c3C(=O)N12 [Dolutegravir] | 8 |  | 1.7 ± 0.4 mg/g | 
CO[C@H]1C[C@@H]2CC[C@@H](C)[C@@](O)(O2)C(=O)C(=O)N2CCCC[C@H]2C(=O)O[C@H]([C@H](C)C[C@@H]2CC[C@@H](O)[C@H](OC)C2)CC(=O)[C@H](C)/C=C(\C)[C@@H](O)[C@@H](OC)C(=O)[C@H](C)C[C@H](C)/C=C/C=C/C=C/1C [Sirolimus] | 10 |  | 1.9 ± 0.0 mg/g | 
C=CC[C@@H]1/C=C(\C)C[C@H](C)C[C@H](OC)[C@H]2O[C@@](O)(C(=O)C(=O)N3CCCC[C@H]3C(=O)O[C@H](/C(C)=C/[C@@H]3CC[C@@H](O)[C@H](OC)C3)[C@H](C)[C@@H](O)CC1=O)[C@H](C)C[C@@H]2OC [Tacrolimus] | 10 | 9591.7 |  | Solubility in SAIB (in words) ([2]; SAIB at 130 or 150° C.): high solubility; Solubility in SAIB ([2]; SAIB temperature 130° C., 30 min, three replicates, listed as TAC): 115.1 ± 2.3 mg/g; Solubility in SAIB ([2]; SAIB temperature 130° C., 30 min, three replicates, listed as Tracolimus): 115.1 ± 2.3 mg/g
CCC(C)n1ncn(-c2ccc(N3CCN(c4ccc(OCC5COC(Cn6cncn6)(c6ccc(Cl)cc6Cl)O5)cc4)CC3)cc2)c1=O (stereo not shown) [Itraconazole] |  |  | insoluble | 
O=C1CCc2ccc(OCCCCN3CCN(c4cccc(Cl)c4Cl)CC3)cc2N1 [Aripiprazole] |  |  |  | Solubility in SAIB [2]: 21.6 ± 2.6 mg/g
Cc1nc(Nc2ncc(C(=O)Nc3c(C)cccc3Cl)s2)cc(N2CCN(CCO)CC2)n1 [Dasatinib] |  |  | insoluble | 
CO[C@H]1/C=C/O[C@@]2(C)Oc3c(C)c(O)c4c(O)c(c5c(nc6cc(C)ccn65)c4c3C2=O)NC(=O)/C(C)=C\C=C\[C@H](C)[C@H](O)[C@@H](C)[C@@H](O)[C@@H](C)[C@H](OC(C)=O)[C@@H]1C [Rifaximin] | 7 |  |  | Solubility in SAIB (in words) [2]: high solubility
NC(=O)N1c2ccccc2C=Cc2ccccc21 [Carbamazepine] |  | 532.3 | 76.5 ± 4.0 mg/g | Solubility in SAIB (in words) ([2]; SAIB at 130 or 150° C.): high solubility; Solubility in SAIB ([2]; SAIB temperature 150° C., 30 min, three replicates, listed as CBZ): 76.5 ± 4.0 mg/g
